Source: patent US9440950B2, “Arginine methyltransferase inhibitors and uses thereof” (Epizyme, Inc., priority 2013, dated 2016)

biological target: T1, human PRMT3 (Homo sapiens, UniProt O60678); test: PRMT3 Biochemical Assay; details: peptide substrate, 3H-SAM Flashplate assay
T1 construct: GST-tagged PRMT3; made in house; host or cells: E. coli BL21(DE3) Gold (pGEX-KG)
Text: S-adenosylmethionine (SAM), S-adenosylhomocysteine (SAH), bicine, Tween20, dimethylsulfoxide (DMSO), bovine skin gelatin (BSG), isopropyl-P3-D-thiogalactopyranoside (IPTG), and Tris(2-carboxyethyl)phosphine hydrochloride solution (TCEP) were purchased from Sigma-Aldrich at the highest level of purity possible. ^3H-SAM was purchase from American Radiolabeled Chemicals with a specific activity of 80 Ci/mmol. 384-well streptavidin Flashplates were purchased from PerkinElmer.
Peptide containing the classic RMT substrate motif was synthesized with an N-terminal linker-affinity tag motif and a C-terminal amide cap by 21st Century Biochemicals. The peptide was purified by high-performance liquid chromatography (HPLC) to greater than 95% purity and confirmed by liquid chromatography mass spectrometry (LC-MS). The sequence was Biot-Ahx-[…]-amide (SEQ ID NO.:11).
Full-length human PRMT3 (NM_005788.3) isoform 1 transcript clone was amplified from an HEK 293 cDNA library and subcloned into pGEX-KG (GE Life Sciences). The resulting construct encodes an N-terminal GST tag and a thrombin cleavage sequence ([…] […] […] […]) (SEQ ID NO.: 12) fused directly to Cys 2 of PRMT3.
E. coli (BL21(DE3) Gold, Stratagene) made competent by the CaCl2 method were transformed with the PRMT3 construct and ampicillin selection. Protein over-expression was accomplished by growing the PRMT3 expressing E. coli clone and inducing expression with 0.3 mM IPTG at 16° C. The culture was grown for 12 hours, harvested by centrifugation, and stored at −80° C. for purification.
GST-tagged PRMT3 eluted with 25-400 mM phosphate in buffer C. Protein was concentrated and buffer was exchanged to 20 mM Tris, 150 mM NaCl, 5% glycerol, 5 mM β-mercaptoethanol, pH7.8 by ultrafiltration. The purity of recovered protein was 70%.
General Procedure for PRMT3 Enzyme Assays on Peptide Substrates.
The assays were all performed in a buffer consisting of 20 mM Bicine (pH=7.6), 1 mM TCEP, 0.005% BSG, and 0.002% Tween 20, prepared on the day of use. Compounds in 100% DMSO (1 ul) were spotted into a polypropylene 384-well V-bottom plates (Greiner) using a Platemate Plus outfitted with a 384-channel head (Thermo Scientific). DMSO (1 ul) was added to Columns 11, 12, 23, 24, rows A-H for the maximum signal control and 1 ul of SAH, a known product and inhibitor of PRMT3, was added to columns 11, 12, 23, 24, rows I-P for the minimum signal control. A cocktail (40 ul) containing the PRMT3 enzyme was added by Multidrop Combi (Thermo-Fisher). The compounds were allowed to incubate with PRMT3 for 30 min at room temperature, then a cocktail (10 ul) containing SAM and peptide was added to initiate the reaction (final volume=51 ul). The final concentrations of the components were as follows: PRMT3 was 0.5 nM, ^3H-SAM was 100 nM, non-radiolabeled SAM was 1.8 uM, peptide was 330 nM, SAH in the minimum signal control wells was 1 mM, and the DMSO concentration was 2%. The assays were stopped by the addition of potassium chloride (10 ul) to a final concentration of 100 mM. 50 ul of the reaction in the 384-well polypropylene plate was then transferred to a 384-well Flashplate and the biotinylated peptides were allowed to bind to the streptavidin surface for at least 1 hour before being washed once with 0.1% Tween20 in a Biotek ELx405 plate washer. The plates were then read in a PerkinElmer TopCount plate reader to measure the quantity of ^3H-labeled peptide bound to the Flashplate surface, measured as disintegrations per minute (dpm) or alternatively, referred to as counts per minute (cpm).
Where dpm=disintegrations per minute, cmpd=signal in assay well, and min and max are the respective minimum and maximum signal controls.
Where top and bottom are the normally allowed to float, but may be fixed at 100 or 0 respectively in a 3-parameter fit. The Hill Coefficient normally allowed to float but may also be fixed at 1 in a 3-parameter fit. […]

T1 sequence (O60678 with tags, fused parts or gaps): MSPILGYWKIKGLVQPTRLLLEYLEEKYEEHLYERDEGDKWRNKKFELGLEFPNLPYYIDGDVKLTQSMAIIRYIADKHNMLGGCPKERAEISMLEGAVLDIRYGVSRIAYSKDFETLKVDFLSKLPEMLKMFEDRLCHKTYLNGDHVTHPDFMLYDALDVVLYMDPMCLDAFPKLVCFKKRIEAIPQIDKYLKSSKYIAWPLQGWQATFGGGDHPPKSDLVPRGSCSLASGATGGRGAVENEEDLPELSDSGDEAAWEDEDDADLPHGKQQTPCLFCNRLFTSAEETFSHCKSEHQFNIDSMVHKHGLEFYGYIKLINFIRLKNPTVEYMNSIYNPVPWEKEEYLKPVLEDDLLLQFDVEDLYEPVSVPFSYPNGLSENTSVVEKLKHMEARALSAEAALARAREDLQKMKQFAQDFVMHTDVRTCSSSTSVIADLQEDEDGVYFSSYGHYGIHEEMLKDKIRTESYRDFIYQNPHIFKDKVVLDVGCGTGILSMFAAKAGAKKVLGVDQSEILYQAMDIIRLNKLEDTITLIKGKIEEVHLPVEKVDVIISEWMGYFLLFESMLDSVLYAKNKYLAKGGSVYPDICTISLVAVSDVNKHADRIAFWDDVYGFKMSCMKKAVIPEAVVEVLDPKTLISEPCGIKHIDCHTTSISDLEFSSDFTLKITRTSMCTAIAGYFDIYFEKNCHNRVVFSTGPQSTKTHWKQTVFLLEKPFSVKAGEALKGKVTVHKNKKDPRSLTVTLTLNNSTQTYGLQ

`CNCCN(C)Cc1c[nH]nc1-c1ccc(N)nc1` [Compound 3] and `CNCCN(C)Cc1c[nH]nc1-c1ccc(O)nc1` [Compound 2] cannot be ordered by IC50: ≥ 10 µM for the first, ≥ 10 µM for the second.

First: Cc1cncc(-c2n[nH]cc2CN(C)CCN)c1 [Compound 6]
Second: CN(CCN)Cc1c[nH]nc1-c1cncc(Cl)c1 [Compound 19]
The IC50 of the first is higher: ≥ 10 µM for the first, 1.01 to 3 µM for the second. The second is the more potent here.

`COc1cc(-c2n[nH]cc2CN(C)CCN)ccn1` [Compound 11] and `COc1ccc(-c2n[nH]cc2CN(C)CCN)cn1` [Compound 5] cannot be ordered by IC50: ≥ 10 µM for the first, ≥ 10 µM for the second.

`COc1ncc(Cl)cc1-c1n[nH]cc1CN(C)CCN` [Compound 14] and `COc1cc(-c2n[nH]cc2CN(C)CCN)c(Cl)cn1` [Compound 12] cannot be ordered by IC50: ≥ 10 µM for the first, ≥ 10 µM for the second.

`CN(CCN)Cc1c[nH]nc1-c1cncc(S(C)(=O)=O)c1` [Compound 4] and `CN(CCN)Cc1c[nH]nc1-c1cncc(F)c1` [Compound 7] cannot be ordered by IC50: ≥ 10 µM for the first, 3.01 to 10 µM for the second.

First: CN(CCN)Cc1c[nH]nc1-c1ccncc1 [Compound 9]
Second: CN(CCN)Cc1c[nH]nc1-c1cccnc1 [Compound 8]
The IC50 of the first is lower: 1.01 to 3 µM for the first, ≥ 10 µM for the second.

First: CN(CCN)Cc1c[nH]nc1-c1cncc(C#N)c1 [Compound 18]
Second: Cc1cc(-c2n[nH]cc2CN(C)CCN)cnc1Cl [Compound 10]
The IC50 of the first is higher: ≥ 10 µM for the first, 1.01 to 3 µM for the second. The second is the more potent here.

`CNCCN(C)Cc1c[nH]nc1-c1cccnc1` [Compound 1] and `Cc1ccncc1-c1n[nH]cc1CN(C)CCN` [Compound 17] cannot be ordered by IC50: ≥ 10 µM for the first, ≥ 10 µM for the second.

`COc1ncccc1-c1n[nH]cc1CN(C)CCN` [Compound 15] and `COc1ccncc1-c1n[nH]cc1CN(C)CCN` [Compound 16] cannot be ordered by IC50: ≥ 10 µM for the first, ≥ 10 µM for the second.

For `CN(CCN)Cc1c[nH]nc1-c1ccc(C(F)(F)F)nc1` [Compound 13, N^1-methyl-N^1-((3-(6-(trifluoromethyl)pyridin-3-yl)-1H-pyrazol-4-yl)methyl)ethane-1,2-diamine], the IC50 was 3.01 to 10 µM.
